Results on eight compounds are retold here after article PMC9532970, “Rational design of photosynthetic reaction center protein maquettes” (Frontiers in Molecular Biosciences, 2022).

Test [1] concerns the target RC maquette-heme B complex. As to the kind of experiment: UV/vis pigment binding titration into RC maquette with heme B bound. Particulars: RC maquette (His124) with heme B bound to the acceptor site; for Kd: read-out: Dissociation constant (KD). The procedure:
(§1) Ultraviolet/visible absorbance spectroscopy (UV/vis) was carried out on a Varian Cary-50 spectrophotometer. Cofactor binding titrations were performed at room temperature using 1 ml samples of ∼1 μM RC maquette in quartz cuvettes. Protein concentrations were calculated by assuming that Trp and Tyr residues have extinction coefficients at 280 nm (ε280nm) of 5,500 M^−1 cm^−1 and 1,490 M^−1 cm^−1, respectively. Samples of Zn 5-phenyl 15-(p-carboxyphenyl) porphyrin (ZnPCP) and Zn Newkome porphyrin were provided by Tatiana Esipova from the research group of Sergei Vinogradov ([Kodali et al., 2017]). The Zn chlorins SE370 and SE375 were produced by the laboratory of Jonathan Lindsey following previously established methods ([Aravindu et al., 2013]; [Kodali et al., 2017]). Other tetrapyrroles were purchased from Frontier Scientific, Inc. Stock solutions of water-soluble cofactors were prepared in water, and insoluble tetrapyrroles were prepared in dimethyl sulfoxide stock solutions of 100–200 µM concentration. Heme B stock concentrations were measured by hemochrome assay ([Berry and Trumpower, 1987]). Stock concentrations of other tetrapyrrole cofactors were estimated by mass measurements.
(§2) For each titration, a cofactor stock solution was titrated into the protein solution in the cuvette. After each addition of cofactor, at least 10 min were allowed for equilibration before collecting a UV/vis spectrum. Cofactor was typically added in steps of 0.1 equivalents of cofactor per protein until after the binding capacity of the protein appeared to have been reached, at which point 0.2 equivalents of cofactor per protein were added at a time. Binding titrations continued until at total of at least three equivalents of cofactor per protein had been added. To determine dissociation constants, we used the following one-site binding equation: A=ctotɛfree+(ɛbound−ɛfree)KD+Ptot+ctot−(KD+Ptot+ctot)^2−4Ptotctot/2+b (2)
(§3) In Eq. 2, A represents the total absorbance at a given wavelength, c tot is the total cofactor concentration, P tot is the total protein concentration, K D is the dissociation constant, εfree is the extinction coefficient of unbound cofactor in solution, εbound is the extinction coefficient of protein-bound cofactor, and b is the absorbance of the sample when c tot is zero.

The next test deals with cyt. b 562. Particulars: read-out: KD of CoPPIX for cyt. b 562, cited from earlier work.
The next test concerns RC maquette. Description: UV/vis cofactor binding titration into RC maquette (no heme pre-bound). Particulars: for Kd: electron acceptor titrated into 1.1-4.4 µM RC maquette, pH 7.0, fit to one-site binding equation (Eq. 2), read-out: dissociation constant (KD). The procedure:
as §1, §2, §3

The next test addresses DH maquette. Description: UV/vis heme binding titration into DH maquette. As to conditions: ferric heme B into 0.5 µM DH maquette, 50 mM NaCl, 10 mM MOPS pH 7.5; read-out: dissociation constant (KD).

What is called Kd is the free concentration of one partner at which half of the binding sites on the other are occupied at equilibrium, for simple one-to-one binding.

Where two headings read alike, the source gives them in different places.

For `CCC1=C(C)c2cc3[n-]c(cc4[n-]c(cc5nc(cc1n2)C(C)=C5CC)c(C)c4CCC(=O)O)c(CCC(=O)O)c3C.[Zn+2]` [Zn mesoporphyrin IX (ZnMPIX), Zn mesoporphyrin IX], the “Dissociation constant (KD), result in words” value (from here on “Dissociation constant (KD)”) in test [1] was “no binding detected”. Consider `C=Cc1c(C)c2cc3[nH]c(cc4nc(cc5nc(cc1[nH]2)C(C)=C5CCC(=O)[O-])C(CCC(=O)[O-])=C4C)c(C)c3C=C.[Co+2]` [CoPPIX, Co(III) protoporphyrin IX], for which the Kd on cyt. b 562 (lower end of literature range, ref Alcala-Torano et al., 2021) is 45 nM; on cyt. b 562 (upper end of literature range, ref Sommer et al., 2016), 8900 nM; on RC maquette, 250 nM. In addition, in the test on RC maquette (KD 250 nM vs <10 nM), the “CoPPIX affinity relative to heme B affinity of the RC maquette (times weaker)” value was “about 25 times”.

With Zn chlorin e6 [Zn chlorin e6 (ZnCe6)], in test [1], the “Dissociation constant (KD)” value is on record as “no binding detected”. On to `CC(=O)C1=C(C)C2=Cc3c(C(C)=O)c(C)c4[n]3[Fe][n]3c(c(C)c(CCC(=O)O)c3=CC3=NC(=C4)C(C)=C3CCC(=O)O)=CC1=N2` [Fe(III)-DADPIX, Fe(III) 2,4-diacetyl deuteroporphyrin IX], for which, at RC maquette, the Kd was under 10 nM.

Take `C1=Cc2nc1c(-c1ccccc1)c1ccc([n-]1)c(-c1ccncc1)c1nc(c(-c3ccccc3)c3ccc([n-]3)c2-c2ccncc2)C=C1.[Zn+2]` [Zn meso-di(4-pyridyl)-diphenyl porphyrin]: the “Dissociation constant (KD)” value in test [1] is on record as “no binding detected”. Turning to `C=CC1=C(C)c2cc3[n-]c(cc4[n-]c(cc5nc(cc1n2)C(C)=C5C=C)c(C)c4CCC(=O)O)c(CCC(=O)O)c3C.[Fe+2]` [heme B], the Kd at RC maquette and at DH maquette was under 10 nM throughout.

Turning to `C=CC1=C(C)c2cc3[nH]c(cc4[nH]c(cc5nc(cc1n2)C(C)=C5C=C)c(C)c4CCC(=O)O)c(CCC(=O)O)c3C` [Zn protoporphyrin IX (ZnPPIX), Zn protoporphyrin IX], the Kd in test [1] stood at 2000 nM.

`O=C(O)c1ccc(-c2c3nc(c(-c4ccc(C(=O)O)cc4)c4ccc([nH]4)c(-c4ccc(C(=O)O)cc4)c4nc(c(-c5ccc(C(=O)O)cc5)c5ccc2[nH]5)C=C4)C=C3)cc1` [Zn meso-tetra(4-carboxyphenyl) prophyrin]: the Kd in test [1] amounted to 5000 nM.
